Measured values: ChEMBL document CHEMBL2203257 (Bioorg Med Chem Lett, 2012)

Columns and labels:
[1] = Half life in cynomolgus monkey; type: ADME, organism-based, Macaca fascicularis; conditions: in vivo
[2] = biological target: Fibroblast growth factor receptor 1 (Homo sapiens, UniProt P11362); test: Inhibition of FGFR1
Ephrin type-B receptor 4 = Ephrin type-B receptor 4 (Homo sapiens, UniProt P54760); test: Inhibition of EPHB4
[3] = biological target: Tyrosine-protein kinase FRK (Homo sapiens, UniProt P42685); test: Inhibition of FRK
[4] = biological target: Phosphatidylinositol 4,5-bisphosphate 3-kinase catalytic subunit gamma isoform (Homo sapiens, UniProt P48736); test: Inhibition of PI3Kgamma by kinobeads assay
Chain of Phosphatidylinositol 4,5-bisphosphate 3-kinase catalytic subunit gamma isoform (P48736 whole entry, canonical isoform): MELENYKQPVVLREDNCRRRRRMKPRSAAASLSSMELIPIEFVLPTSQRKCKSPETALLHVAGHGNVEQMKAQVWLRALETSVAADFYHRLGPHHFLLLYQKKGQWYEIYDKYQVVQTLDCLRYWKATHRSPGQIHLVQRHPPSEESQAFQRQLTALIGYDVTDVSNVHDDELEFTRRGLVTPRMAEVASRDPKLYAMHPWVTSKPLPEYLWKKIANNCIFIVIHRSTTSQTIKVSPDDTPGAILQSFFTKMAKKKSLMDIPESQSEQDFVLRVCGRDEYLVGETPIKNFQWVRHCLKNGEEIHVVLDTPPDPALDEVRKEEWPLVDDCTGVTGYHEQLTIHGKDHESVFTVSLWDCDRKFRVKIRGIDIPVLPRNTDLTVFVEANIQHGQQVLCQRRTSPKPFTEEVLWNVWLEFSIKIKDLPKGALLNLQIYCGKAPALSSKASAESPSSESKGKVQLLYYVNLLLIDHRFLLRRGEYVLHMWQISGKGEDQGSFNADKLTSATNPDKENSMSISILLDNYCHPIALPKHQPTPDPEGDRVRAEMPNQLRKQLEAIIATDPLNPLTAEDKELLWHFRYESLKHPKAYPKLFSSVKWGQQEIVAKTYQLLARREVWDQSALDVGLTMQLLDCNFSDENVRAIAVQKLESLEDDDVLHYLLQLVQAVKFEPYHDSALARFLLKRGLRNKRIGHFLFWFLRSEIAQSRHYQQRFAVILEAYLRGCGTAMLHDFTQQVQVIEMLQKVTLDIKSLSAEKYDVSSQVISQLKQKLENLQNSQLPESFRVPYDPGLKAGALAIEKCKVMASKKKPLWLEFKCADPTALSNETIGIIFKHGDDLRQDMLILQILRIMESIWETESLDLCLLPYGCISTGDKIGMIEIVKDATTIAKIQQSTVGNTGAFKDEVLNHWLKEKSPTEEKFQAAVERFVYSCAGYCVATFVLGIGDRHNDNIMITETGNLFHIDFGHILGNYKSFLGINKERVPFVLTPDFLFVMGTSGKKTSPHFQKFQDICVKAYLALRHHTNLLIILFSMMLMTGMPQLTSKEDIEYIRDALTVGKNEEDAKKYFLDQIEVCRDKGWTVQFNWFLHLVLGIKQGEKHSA

[5] = biological target: Serine/threonine-protein kinase 17B (Homo sapiens, UniProt O94768); test: Inhibition of STK17B
[6] = Cmax in rat […] at 5 mg/kg, po; 1 mg/kg, iv; type: ADME, organism-based
[7] = biological target: MAP/microtubule affinity-regulating kinase 4 (Homo sapiens, UniProt Q96L34); test: Inhibition of MARK4
[8] = biological target: Casein kinase I isoform epsilon (Homo sapiens, UniProt P49674); test: Inhibition of CSNK1E
[9] = biological target: Serine/threonine-protein kinase NLK (Homo sapiens, UniProt Q9UBE8); test: Inhibition of NLK
Chain of Serine/threonine-protein kinase NLK (Q9UBE8 whole entry): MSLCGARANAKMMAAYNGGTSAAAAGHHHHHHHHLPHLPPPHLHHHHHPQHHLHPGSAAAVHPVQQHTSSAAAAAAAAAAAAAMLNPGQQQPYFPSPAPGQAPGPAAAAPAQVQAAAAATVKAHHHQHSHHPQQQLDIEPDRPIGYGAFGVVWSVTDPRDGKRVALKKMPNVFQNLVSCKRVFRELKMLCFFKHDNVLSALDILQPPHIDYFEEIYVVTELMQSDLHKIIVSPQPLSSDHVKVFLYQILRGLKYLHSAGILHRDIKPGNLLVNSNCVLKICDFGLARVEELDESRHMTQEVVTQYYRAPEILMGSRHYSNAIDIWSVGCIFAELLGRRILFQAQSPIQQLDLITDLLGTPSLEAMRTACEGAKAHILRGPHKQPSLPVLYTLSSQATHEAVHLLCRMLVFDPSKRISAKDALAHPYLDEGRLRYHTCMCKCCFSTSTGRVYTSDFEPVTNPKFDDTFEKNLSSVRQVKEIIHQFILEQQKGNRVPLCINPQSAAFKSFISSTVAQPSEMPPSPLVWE

[10] = biological target: Mitogen-activated protein kinase kinase kinase 1 (Homo sapiens, UniProt Q13233); test: Inhibition of MAP3K1
[11] = biological target: Serine/threonine-protein kinase N1 (Homo sapiens, UniProt Q16512); test: Inhibition of PKN1
Ephrin type-B receptor 2 = Ephrin type-B receptor 2 (Homo sapiens, UniProt P29323); test: Inhibition of EPHB2
[12] = biological target: Mitogen-activated protein kinase kinase kinase 3 (Homo sapiens, UniProt Q99759); test: Inhibition of MAP3K3
[13] = biological target: Calcium/calmodulin-dependent protein kinase kinase 2 (Homo sapiens, UniProt Q96RR4); test: Inhibition of CAMKK2
[14] = biological target: Phosphatidylinositol 4,5-bisphosphate 3-kinase catalytic subunit beta isoform (Homo sapiens, UniProt P42338); test: Inhibition of PIK3Cb
[15] = biological target: Mitogen-activated protein kinase kinase kinase 4 (Homo sapiens, UniProt Q9Y6R4); test: Inhibition of MAP3K4
[16] = biological target: Serine/threonine-protein kinase SIK3 (Homo sapiens, UniProt Q9Y2K2); test: Inhibition of KIAA0999
[17] = biological target: Serine/threonine-protein kinase ULK3 (Homo sapiens, UniProt Q6PHR2); test: Inhibition of ULK3
[18] = biological target: Tyrosine-protein kinase CSK (Homo sapiens, UniProt P41240); test: Inhibition of CSK
LIM domain kinase 2 = LIM domain kinase 2 (Homo sapiens, UniProt P53671); test: Inhibition of LIMK2
[19] = biological target: Dual specificity testis-specific protein kinase 1 (Homo sapiens, UniProt Q15569); test: Inhibition of TESK1
Activated CDC42 kinase 1 = Activated CDC42 kinase 1 (Homo sapiens, UniProt Q07912); test: Inhibition of TNK2
[20] = biological target: Dual specificity mitogen-activated protein kinase kinase 2 (Homo sapiens, UniProt P36507); test: Inhibition of MAP2K2
[21] = biological target: Phosphatidylinositol 3-kinase catalytic subunit type 3 (Homo sapiens, UniProt Q8NEB9); test: Inhibition of PIK3C3
[22] = biological target: Tyrosine-protein kinase Fes/Fps (Homo sapiens, UniProt P07332); test: Inhibition of FES
Chain of Tyrosine-protein kinase Fes/Fps (P07332 whole entry, canonical isoform): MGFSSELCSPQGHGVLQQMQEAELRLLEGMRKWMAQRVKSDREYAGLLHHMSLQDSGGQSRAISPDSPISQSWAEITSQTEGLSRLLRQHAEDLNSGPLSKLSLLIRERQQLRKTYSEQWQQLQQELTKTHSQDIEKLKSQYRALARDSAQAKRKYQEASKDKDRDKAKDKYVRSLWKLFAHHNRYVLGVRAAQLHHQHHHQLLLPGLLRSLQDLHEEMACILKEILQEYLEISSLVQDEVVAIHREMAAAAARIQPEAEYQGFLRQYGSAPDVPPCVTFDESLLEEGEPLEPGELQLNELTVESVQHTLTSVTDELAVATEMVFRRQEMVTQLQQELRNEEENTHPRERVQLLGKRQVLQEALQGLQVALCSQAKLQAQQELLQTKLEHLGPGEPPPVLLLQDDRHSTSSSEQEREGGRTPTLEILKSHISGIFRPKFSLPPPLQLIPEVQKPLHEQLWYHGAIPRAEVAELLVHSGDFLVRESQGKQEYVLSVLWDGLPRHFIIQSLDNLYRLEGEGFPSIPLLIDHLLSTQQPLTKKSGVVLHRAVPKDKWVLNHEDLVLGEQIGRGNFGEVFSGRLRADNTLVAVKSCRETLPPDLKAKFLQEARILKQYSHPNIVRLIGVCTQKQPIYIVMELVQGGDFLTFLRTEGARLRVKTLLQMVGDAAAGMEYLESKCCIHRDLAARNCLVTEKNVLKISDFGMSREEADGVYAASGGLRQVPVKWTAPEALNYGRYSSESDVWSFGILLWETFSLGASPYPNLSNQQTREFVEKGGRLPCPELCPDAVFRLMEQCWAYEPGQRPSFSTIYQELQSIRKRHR

[23] = biological target: Phosphorylase b kinase gamma catalytic chain, liver/testis isoform (Homo sapiens, UniProt P15735); test: Inhibition of PHKG2
[24] = biological target: Protein kinase C alpha type (Homo sapiens, UniProt P17252); test: Inhibition of PRKCA
Aurora kinase A = Aurora kinase A (Homo sapiens, UniProt O14965); test: Inhibition of AURKA
[25] = biological target: Dual specificity mitogen-activated protein kinase kinase 5 (Homo sapiens, UniProt Q13163); test: Inhibition of MAP2K5
[26] = biological target: Mitogen-activated protein kinase 11 (Homo sapiens, UniProt Q15759); test: Inhibition of MAPK11
[27] = biological target: Casein kinase I isoform gamma-1 (Homo sapiens, UniProt Q9HCP0); test: Inhibition of CSNK1G1
[28] = biological target: Mitogen-activated protein kinase kinase kinase kinase 2 (Homo sapiens, UniProt Q12851); test: Inhibition of MAP4K2
Chain of Mitogen-activated protein kinase kinase kinase kinase 2 (Q12851 whole entry): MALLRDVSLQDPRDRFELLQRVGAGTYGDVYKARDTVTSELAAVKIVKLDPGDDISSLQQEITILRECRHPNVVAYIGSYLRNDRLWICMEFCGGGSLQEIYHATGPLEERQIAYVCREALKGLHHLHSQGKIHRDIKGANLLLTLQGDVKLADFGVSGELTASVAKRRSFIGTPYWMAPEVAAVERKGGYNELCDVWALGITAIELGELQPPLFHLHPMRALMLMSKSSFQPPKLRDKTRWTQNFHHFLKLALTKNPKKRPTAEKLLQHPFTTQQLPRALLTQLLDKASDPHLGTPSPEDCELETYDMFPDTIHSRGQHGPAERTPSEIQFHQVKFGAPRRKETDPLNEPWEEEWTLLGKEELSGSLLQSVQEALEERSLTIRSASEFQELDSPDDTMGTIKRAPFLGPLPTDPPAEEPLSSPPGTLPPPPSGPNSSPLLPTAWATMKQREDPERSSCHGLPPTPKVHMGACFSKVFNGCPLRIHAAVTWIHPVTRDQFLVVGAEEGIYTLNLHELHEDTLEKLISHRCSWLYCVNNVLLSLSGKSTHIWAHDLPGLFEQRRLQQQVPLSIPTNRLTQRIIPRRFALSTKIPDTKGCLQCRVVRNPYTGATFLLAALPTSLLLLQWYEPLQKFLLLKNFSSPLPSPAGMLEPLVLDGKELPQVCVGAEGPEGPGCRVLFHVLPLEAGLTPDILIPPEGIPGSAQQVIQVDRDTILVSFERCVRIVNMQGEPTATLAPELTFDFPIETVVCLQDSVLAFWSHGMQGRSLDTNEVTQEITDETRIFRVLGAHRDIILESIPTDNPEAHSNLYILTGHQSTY

[29] = biological target: Eukaryotic translation initiation factor 2-alpha kinase 1 (Homo sapiens, UniProt Q9BQI3); test: Inhibition of EIF2AK1
[30] = biological target: Tyrosine-protein kinase JAK1 (Homo sapiens, UniProt P23458); test: Inhibition of JAK1
[31] = biological target: Serine/threonine-protein kinase D2 (Homo sapiens, UniProt Q9BZL6); test: Inhibition of PRKD2
Chain of Serine/threonine-protein kinase D2 (Q9BZL6 whole entry): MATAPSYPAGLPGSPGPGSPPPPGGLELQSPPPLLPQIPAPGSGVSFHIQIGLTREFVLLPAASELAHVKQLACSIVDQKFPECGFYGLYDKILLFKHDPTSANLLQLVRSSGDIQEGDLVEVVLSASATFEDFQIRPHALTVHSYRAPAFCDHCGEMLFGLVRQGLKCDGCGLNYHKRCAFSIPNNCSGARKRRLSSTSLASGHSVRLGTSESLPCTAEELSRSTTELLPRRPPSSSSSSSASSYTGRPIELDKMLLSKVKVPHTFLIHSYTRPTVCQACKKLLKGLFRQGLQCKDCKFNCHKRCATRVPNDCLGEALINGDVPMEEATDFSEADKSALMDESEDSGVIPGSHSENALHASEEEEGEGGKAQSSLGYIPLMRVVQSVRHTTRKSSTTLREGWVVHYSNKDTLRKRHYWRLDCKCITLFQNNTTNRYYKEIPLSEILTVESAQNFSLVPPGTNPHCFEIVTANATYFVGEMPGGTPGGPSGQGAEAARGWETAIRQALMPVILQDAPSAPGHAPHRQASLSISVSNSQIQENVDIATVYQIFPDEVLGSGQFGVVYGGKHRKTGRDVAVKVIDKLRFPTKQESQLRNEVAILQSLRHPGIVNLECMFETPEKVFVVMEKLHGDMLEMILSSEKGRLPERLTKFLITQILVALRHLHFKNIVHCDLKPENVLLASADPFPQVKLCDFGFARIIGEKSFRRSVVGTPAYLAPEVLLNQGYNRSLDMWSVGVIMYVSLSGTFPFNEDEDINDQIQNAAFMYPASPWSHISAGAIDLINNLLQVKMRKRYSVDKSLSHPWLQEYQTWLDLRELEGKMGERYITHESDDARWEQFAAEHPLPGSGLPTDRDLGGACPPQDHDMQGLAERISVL

Mus musculus = test: Antiinflammatory activity in mouse air pouch model assessed as effect on IL-8-induced migration of granulocytes into air pouch at 10 mg/kg, po; type: functional
[32] = Oral bioavailability in Wistar rat at 5 mg/kg; 1 mg/kg, iv; conditions: in vivo
[33] = biological target: Serine/threonine-protein kinase TAO2 (Homo sapiens, UniProt Q9UL54); test: Inhibition of TAOK2
[34] = biological target: Ribosomal protein S6 kinase alpha-4 (Homo sapiens, UniProt O75676); test: Inhibition of RPS6KA4
[35] = biological target: Bone morphogenetic protein receptor type-1A (Homo sapiens, UniProt P36894); test: Inhibition of BMPR1A
[36] = biological target: Mitogen-activated protein kinase 14 (Homo sapiens, UniProt Q16539); test: Inhibition of MAPK14
[37] = biological target: Tyrosine-protein kinase ABL1 (Homo sapiens, UniProt P00519); test: Inhibition of ABL1
[38] = biological target: Hepatocyte growth factor receptor (Homo sapiens, UniProt P08581); test: Inhibition of MET
[39] = biological target: Protein kinase C theta type (Homo sapiens, UniProt Q04759); test: Inhibition of PRKCQ
[40] = biological target: Dual specificity mitogen-activated protein kinase kinase 1 (Homo sapiens, UniProt Q02750); test: Inhibition of MAP2K1
[41] = biological target: Casein kinase I isoform alpha (Homo sapiens, UniProt P48729); test: Inhibition of CSNK1A1
[42] = biological target: Dual specificity protein kinase CLK1 (Homo sapiens, UniProt P49759); test: Inhibition of CLK1
[43] = biological target: 3-phosphoinositide-dependent protein kinase 1 (Homo sapiens, UniProt O15530); test: Inhibition of PDPK1
[44] = biological target: Proto-oncogene tyrosine-protein kinase receptor Ret (Homo sapiens, UniProt P07949); test: Inhibition of RET
[45] = biological target: Casein kinase I isoform gamma-3 (Homo sapiens, UniProt Q9Y6M4); test: Inhibition of CSNK1G3
[46] = biological target: Phosphoinositide 3-kinase regulatory subunit 4 (Homo sapiens, UniProt Q99570); test: Inhibition of PIK3R4
[47] = Clearance in cynomolgus monkey; type: ADME, organism-based, Macaca fascicularis; conditions: in vivo
[48] = biological target: Proto-oncogene tyrosine-protein kinase Src (Homo sapiens, UniProt P12931); test: Inhibition of SRC
Cytochrome P450 2D6 = Cytochrome P450 2D6 (Homo sapiens, UniProt P10635); test: Inhibition of CYP2D6 at >20 uM; type: ADME

half-life [1]: 6.1 h
IC50 [2]: > 10 µM
IC50 (Ephrin type-B receptor 4): > 10 µM
IC50 [3]: > 10 µM
IC50 [4]: 0.0126 µM
IC50 [5]: > 10 µM
Cmax [6]: 5.9 µM
IC50 [7]: > 10 µM
IC50 [8]: > 10 µM
IC50 [9]: > 10 µM
IC50 [10]: > 10 µM
IC50 [11]: > 10 µM
IC50 (Ephrin type-B receptor 2): > 10 µM
IC50 [12]: > 10 µM
IC50 [13]: > 10 µM
IC50 [14]: 0.49 µM
IC50 [15]: > 10 µM
IC50 [16]: > 10 µM
IC50 [17]: > 10 µM
IC50 [18]: > 10 µM
IC50 (LIM domain kinase 2): > 10 µM
IC50 [19]: > 10 µM
IC50 (Activated CDC42 kinase 1): > 10 µM
IC50 [20]: > 10 µM
IC50 [21]: > 5.89 µM
IC50 [22]: > 10 µM
IC50 [23]: > 10 µM
IC50 [24]: > 10 µM
IC50 (Aurora kinase A): > 10 µM
IC50 [25]: > 10 µM
IC50 [26]: > 10 µM
IC50 [27]: 9.55 µM
IC50 [28]: > 10 µM
IC50 [29]: > 10 µM
IC50 [30]: 4.37 µM
IC50 [31]: > 10 µM
bioavailability [32]: 81%
IC50 [33]: > 10 µM
IC50 [34]: > 10 µM
IC50 [35]: > 10 µM
IC50 [36]: > 10 µM
IC50 [37]: > 10 µM
IC50 [38]: > 10 µM
IC50 [39]: > 10 µM
IC50 [40]: > 10 µM
IC50 [41]: 9.12 µM
IC50 [42]: > 10 µM
IC50 [43]: > 10 µM
IC50 [44]: > 10 µM
IC50 [45]: > 10 µM
IC50 [46]: > 10 µM
clearance [47]: 1.6 mL/min/kg
IC50 [48]: > 10 µM
inhibition (INH) (Cytochrome P450 2D6): Active
SMILES: CC(C)(C)NS(=O)(=O)c1cncc(-c2ccn3nc(N)nc3c2)c1
Activity (Mus musculus): 73%
